Reference: ChEMBL document CHEMBL5537177, “Discovery of Potent Antimalarial Type II Kinase Inhibitors with Selectivity over Human Kinases” (J Med Chem, 2024)
pEC50: −log10 of the molar value.

Tested on: HepG2
Experiment: Cytotoxicity against human HepG2 cells assessed as reduction in cell viability incubated for 48 hrs by MTS assay
Type: toxicity, cell-based
Settings: hepg2
With `CCN1CCN(Cc2ccc(NC(=O)c3cc(Cl)cc(NC(=O)c4cncc(-c5cncs5)c4)c3)cc2C(F)(F)F)CC1` the pEC50 was 5.22. Work on `CCN1CCN(Cc2ccc(NC(=O)c3cc(Cl)cc(Nc4cncc(-c5cccs5)c4)c3)cc2C(F)(F)F)CC1` yielded a pEC50 of 5.44. Work on `CCN1CCN(Cc2ccc(NC(=O)c3cc(Cl)cc(NC(=O)c4ccccc4)c3)cc2C(F)(F)F)CC1` yielded a pEC50 of 5.14. Work on `CCN1CCN(Cc2ccc(NC(=O)c3cc(Br)cc(NC(=O)c4cncc(-c5cccs5)c4)c3)cc2C(F)(F)F)CC1` yielded a pEC50 of 5.36. `CCN1CCN(Cc2ccc(NC(=O)c3cc(Cl)cc(NC(=O)c4cncc(C#N)c4)c3)cc2C(F)(F)F)CC1` showed a pEC50 of 4.96. For `CCN1CCN(Cc2ccc(NC(=O)c3cc(Cl)cc(NC(=O)c4cncc(-c5ccccc5)c4)c3)cc2C(F)(F)F)CC1`, the pEC50 was 5.48. In the case of `CCN1CCN(Cc2ccc(C(=O)Nc3cc(Cl)cc(NC(=O)c4cncc(-c5cccs5)c4)c3)cc2C(F)(F)F)CC1`, the pEC50 was 5.04.

Tested on: not listed separately
Experiment: Selectivity index, ratio of EC50 for human MCF7 cells to EC50 for multidrug-resistant Plasmodium falciparum Dd2 at ring stage infected in A+ erythrocytes
Type: toxicity, cell-based
Settings: read-out: Ratio EC50
Work on `CCN1CCN(Cc2ccc(NC(=O)c3cc(Cl)cc(NC(=O)c4cncc(-c5cncs5)c4)c3)cc2C(F)(F)F)CC1` yielded a selectivity ratio of 145. For `CCN1CCN(Cc2ccc(NC(=O)c3cc(Cl)cc(Nc4cncc(-c5cccs5)c4)c3)cc2C(F)(F)F)CC1`, the selectivity ratio was 19. In the case of `CCN1CCN(Cc2ccc(NC(=O)c3cc(Cl)cc(NC(=O)c4ccccc4)c3)cc2C(F)(F)F)CC1`, the selectivity ratio was 12. For `CCN1CCN(Cc2ccc(NC(=O)c3cc(Br)cc(NC(=O)c4cncc(-c5cccs5)c4)c3)cc2C(F)(F)F)CC1`, the selectivity ratio was 108. In the case of `CCN1CCN(Cc2ccc(NC(=O)c3cc(Cl)cc(NC(=O)c4cncc(C#N)c4)c3)cc2C(F)(F)F)CC1`, the selectivity ratio was 40. Work on `CCN1CCN(Cc2ccc(NC(=O)c3cc(Cl)cc(NC(=O)c4cncc(-c5ccccc5)c4)c3)cc2C(F)(F)F)CC1` yielded a selectivity ratio of 87. For `CCN1CCN(Cc2ccc(C(=O)Nc3cc(Cl)cc(NC(=O)c4cncc(-c5cccs5)c4)c3)cc2C(F)(F)F)CC1`, the selectivity ratio was 68.

Tested on: not listed separately
Experiment: Metabolic stability in mouse liver microsomes assessed as half life
Type: ADME, Liver cells
Settings: not given
Work on `CCN1CCN(Cc2ccc(NC(=O)c3cc(Cl)cc(NC(=O)c4cncc(-c5cncs5)c4)c3)cc2C(F)(F)F)CC1` yielded a t1/2 of 52.1 min. Work on `CCN1CCN(Cc2ccc(NC(=O)c3cc(Br)cc(NC(=O)c4cncc(-c5cccs5)c4)c3)cc2C(F)(F)F)CC1` yielded a t1/2 of 40.7 min. For `CCN1CCN(Cc2ccc(NC(=O)c3cc(Cl)cc(NC(=O)c4cncc(-c5ccccc5)c4)c3)cc2C(F)(F)F)CC1`, the t1/2 was 50.2 min.

Tested on: Plasmodium falciparum
Experiment: Resistance index, ratio of EC50 for multidrug-resistant Plasmodium falciparum Dd2 at ring stage infected in A+ erythrocytes to EC50 for drug-sensitive Plasmodium falciparum 3D7 at ring stage infected in A+ erythrocytes
Type: organism-based
Settings: human
For `CCN1CCN(Cc2ccc(NC(=O)c3cc(Cl)cc(NC(=O)c4cncc(-c5cncs5)c4)c3)cc2C(F)(F)F)CC1`, the “Ratio EC50” value was 0.8. With `CCN1CCN(Cc2ccc(NC(=O)c3cc(Cl)cc(Nc4cncc(-c5cccs5)c4)c3)cc2C(F)(F)F)CC1` the “Ratio EC50” value was 1.2. In the case of `CCN1CCN(Cc2ccc(NC(=O)c3cc(Cl)cc(NC(=O)c4ccccc4)c3)cc2C(F)(F)F)CC1`, the “Ratio EC50” value was 1.4. For `CCN1CCN(Cc2ccc(NC(=O)c3cc(Br)cc(NC(=O)c4cncc(-c5cccs5)c4)c3)cc2C(F)(F)F)CC1`, the “Ratio EC50” value was 1.6. For `CCN1CCN(Cc2ccc(NC(=O)c3cc(Cl)cc(NC(=O)c4cncc(C#N)c4)c3)cc2C(F)(F)F)CC1`, the “Ratio EC50” value was 1. With `CCN1CCN(Cc2ccc(NC(=O)c3cc(Cl)cc(NC(=O)c4cncc(-c5ccccc5)c4)c3)cc2C(F)(F)F)CC1` the “Ratio EC50” value was 1.2. In the case of `CCN1CCN(Cc2ccc(C(=O)Nc3cc(Cl)cc(NC(=O)c4cncc(-c5cccs5)c4)c3)cc2C(F)(F)F)CC1`, the “Ratio EC50” value was 1.4.

Tested on: Plasmodium falciparum
Experiment: Antiplasmodial activity against drug-sensitive Plasmodium falciparum 3D7 at ring stage infected in A+ erythrocytes assessed as parasite growth reduction incubated for 72 hrs by SYBR Green I dye based analysis
Type: functional, organism-based
Settings: 3D7, Erythrocyte
Molecule `CCN1CCN(Cc2ccc(NC(=O)c3cc(Cl)cc(NC(=O)c4cncc(-c5cncs5)c4)c3)cc2C(F)(F)F)CC1` has a pEC50 of 7.13. Work on `CCN1CCN(Cc2ccc(NC(=O)c3cc(Cl)cc(Nc4cncc(-c5cccs5)c4)c3)cc2C(F)(F)F)CC1` yielded a pEC50 of 6.60. With `CCN1CCN(Cc2ccc(NC(=O)c3cc(Cl)cc(NC(=O)c4ccccc4)c3)cc2C(F)(F)F)CC1` the pEC50 was 6.44. Work on `CCN1CCN(Cc2ccc(NC(=O)c3cc(Br)cc(NC(=O)c4cncc(-c5cccs5)c4)c3)cc2C(F)(F)F)CC1` yielded a pEC50 of 7.41. In the case of `CCN1CCN(Cc2ccc(NC(=O)c3cc(Cl)cc(NC(=O)c4cncc(C#N)c4)c3)cc2C(F)(F)F)CC1`, the pEC50 was 6.73. In the case of `CCN1CCN(Cc2ccc(NC(=O)c3cc(Cl)cc(NC(=O)c4cncc(-c5ccccc5)c4)c3)cc2C(F)(F)F)CC1`, the pEC50 was 7.39. Molecule `CCN1CCN(Cc2ccc(C(=O)Nc3cc(Cl)cc(NC(=O)c4cncc(-c5cccs5)c4)c3)cc2C(F)(F)F)CC1` has a pEC50 of 7.14.

Tested on: MCF7
Experiment: Cytotoxicity against human MCF7 cells assessed as reduction in cell viability incubated for 48 hrs by MTS assay
Type: toxicity, cell-based
Settings: mcf7
With `CCN1CCN(Cc2ccc(NC(=O)c3cc(Cl)cc(NC(=O)c4cncc(-c5cncs5)c4)c3)cc2C(F)(F)F)CC1` the pEC50 was 5.09. Work on `CCN1CCN(Cc2ccc(NC(=O)c3cc(Cl)cc(Nc4cncc(-c5cccs5)c4)c3)cc2C(F)(F)F)CC1` yielded a pEC50 of 5.26. With `CCN1CCN(Cc2ccc(NC(=O)c3cc(Cl)cc(NC(=O)c4ccccc4)c3)cc2C(F)(F)F)CC1` the pEC50 was 5.22. `CCN1CCN(Cc2ccc(NC(=O)c3cc(Br)cc(NC(=O)c4cncc(-c5cccs5)c4)c3)cc2C(F)(F)F)CC1` gave a pEC50 of 5.18. For `CCN1CCN(Cc2ccc(NC(=O)c3cc(Cl)cc(NC(=O)c4cncc(C#N)c4)c3)cc2C(F)(F)F)CC1`, the pEC50 was 5.12. `CCN1CCN(Cc2ccc(NC(=O)c3cc(Cl)cc(NC(=O)c4cncc(-c5ccccc5)c4)c3)cc2C(F)(F)F)CC1` showed a pEC50 of 5.36. Work on `CCN1CCN(Cc2ccc(C(=O)Nc3cc(Cl)cc(NC(=O)c4cncc(-c5cccs5)c4)c3)cc2C(F)(F)F)CC1` yielded a pEC50 of 5.15.

Tested on: not listed separately
Experiment: Metabolic stability in mouse liver microsomes assessed as intrinsic clearance
Type: ADME, Liver cells
Settings: not given
Work on `CCN1CCN(Cc2ccc(NC(=O)c3cc(Cl)cc(NC(=O)c4cncc(-c5cncs5)c4)c3)cc2C(F)(F)F)CC1` yielded an intrinsic clearance of 13 µL/min/mg. With `CCN1CCN(Cc2ccc(NC(=O)c3cc(Br)cc(NC(=O)c4cncc(-c5cccs5)c4)c3)cc2C(F)(F)F)CC1` the intrinsic clearance was 17 µL/min/mg. In the case of `CCN1CCN(Cc2ccc(NC(=O)c3cc(Cl)cc(NC(=O)c4cncc(-c5ccccc5)c4)c3)cc2C(F)(F)F)CC1`, the intrinsic clearance was 14 µL/min/mg.

Tested on: not listed separately
Experiment: Selectivity index, ratio of EC50 for human HepG2 cells to EC50 for multidrug-resistant Plasmodium falciparum Dd2 at ring stage infected in A+ erythrocytes
Type: toxicity, cell-based
Settings: read-out: Ratio EC50
`CCN1CCN(Cc2ccc(NC(=O)c3cc(Cl)cc(NC(=O)c4cncc(-c5cncs5)c4)c3)cc2C(F)(F)F)CC1` showed a selectivity ratio of 109. In the case of `CCN1CCN(Cc2ccc(NC(=O)c3cc(Cl)cc(Nc4cncc(-c5cccs5)c4)c3)cc2C(F)(F)F)CC1`, the selectivity ratio was 12. `CCN1CCN(Cc2ccc(NC(=O)c3cc(Cl)cc(NC(=O)c4ccccc4)c3)cc2C(F)(F)F)CC1` gave a selectivity ratio of 15. In the case of `CCN1CCN(Cc2ccc(NC(=O)c3cc(Br)cc(NC(=O)c4cncc(-c5cccs5)c4)c3)cc2C(F)(F)F)CC1`, the selectivity ratio was 72. In the case of `CCN1CCN(Cc2ccc(NC(=O)c3cc(Cl)cc(NC(=O)c4cncc(C#N)c4)c3)cc2C(F)(F)F)CC1`, the selectivity ratio was 58. `CCN1CCN(Cc2ccc(NC(=O)c3cc(Cl)cc(NC(=O)c4cncc(-c5ccccc5)c4)c3)cc2C(F)(F)F)CC1` gave a selectivity ratio of 66. With `CCN1CCN(Cc2ccc(C(=O)Nc3cc(Cl)cc(NC(=O)c4cncc(-c5cccs5)c4)c3)cc2C(F)(F)F)CC1` the selectivity ratio was 88.

Tested on: Plasmodium falciparum
Experiment: Antiplasmodial activity against multidrug-resistant Plasmodium falciparum Dd2 at ring stage infected in A+ erythrocytes assessed as parasite growth reduction incubated for 72 hrs by SYBR Green I dye based analysis
Type: functional, organism-based
Settings: Dd2, Erythrocyte
`CCN1CCN(Cc2ccc(NC(=O)c3cc(Cl)cc(NC(=O)c4cncc(-c5cncs5)c4)c3)cc2C(F)(F)F)CC1` showed a pEC50 of 7.25. `CCN1CCN(Cc2ccc(NC(=O)c3cc(Cl)cc(Nc4cncc(-c5cccs5)c4)c3)cc2C(F)(F)F)CC1` gave a pEC50 of 6.53. With `CCN1CCN(Cc2ccc(NC(=O)c3cc(Cl)cc(NC(=O)c4ccccc4)c3)cc2C(F)(F)F)CC1` the pEC50 was 6.31. `CCN1CCN(Cc2ccc(NC(=O)c3cc(Br)cc(NC(=O)c4cncc(-c5cccs5)c4)c3)cc2C(F)(F)F)CC1` gave a pEC50 of 7.21. `CCN1CCN(Cc2ccc(NC(=O)c3cc(Cl)cc(NC(=O)c4cncc(C#N)c4)c3)cc2C(F)(F)F)CC1` showed a pEC50 of 6.72. Molecule `CCN1CCN(Cc2ccc(NC(=O)c3cc(Cl)cc(NC(=O)c4cncc(-c5ccccc5)c4)c3)cc2C(F)(F)F)CC1` has a pEC50 of 7.30. `CCN1CCN(Cc2ccc(C(=O)Nc3cc(Cl)cc(NC(=O)c4cncc(-c5cccs5)c4)c3)cc2C(F)(F)F)CC1` showed a pEC50 of 6.98.
